Experiments:
[1] = tested on: IgE antibodies in sera from birch pollen allergic patients; test: ELISA detection of peptide- and rBet v 1-specific IgE antibodies; format: binding, human
Method in brief: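 Sera from 60 birch pollen allergic patients (rhinoconjunctivitis and/or asthma; skin prick and CAP RAST characterized) plus one non-atopic individual, diluted 1:3, incubated overnight at 4 °C on coated plates. Bound IgE detected with 1:1000 alkaline-phosphatase-coupled mouse anti-human IgE.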

[2] = tested on: birch pollen allergic patients; test: Skin prick testing of allergic patients; format: in vivo, human; conditions: 100 μg/ml
Method: SPTs were performed on the individuals forearms as described ([…]. et al. (1997) J. Clin Invest. 99, 1673-168; Dreborg S: (1989) J. Am. Acad. DerMatol. 21, 820-821). […] In addition standardized skin prick solutions (birch pollen extract and histamine) (Allergopharma, Reinbek, Germany) were tested. Reactions were recorded 20 minutes after SPT by photography and by transferring the ballpoint pen-surrounded wheal area with a scotch tape to paper.

Sequence: LFPKVAPQAISSVENIEGNGGPGTIKKISFC [Peptide P2, Bet v 1-derived synthetic peptide, position aa 30-59, one cysteine added]
- IgE (OD) ([1]; serum of NHS, non-allergic control individual): — (Dashes indicate reactivities below the cut-off level (OD=0.050))
- IgE (OD) ([1]; serum of patient 1): — (Dashes indicate reactivities below the cut-off level (OD=0.050))
- IgE (OD) ([1]; serum of patient 2): — (Dashes indicate reactivities below the cut-off level (OD=0.050))
- IgE (OD) ([1]; serum of patient 3): — (Dashes indicate reactivities below the cut-off level (OD=0.050))
- IgE (OD) ([1]; serum of patient 4): — (Dashes indicate reactivities below the cut-off level (OD=0.050))
- IgE (OD) ([1]; serum of patient 5): — (Dashes indicate reactivities below the cut-off level (OD=0.050))
- IgE (OD) ([1]; serum of patient 6): — (Dashes indicate reactivities below the cut-off level (OD=0.050))
- IgE (OD) ([1]; serum of patient 7): — (Dashes indicate reactivities below the cut-off level (OD=0.050))
- IgE (OD) ([1]; serum of patient 8): — (Dashes indicate reactivities below the cut-off level (OD=0.050))
- IgE (OD) ([1]; serum of patient 9): — (Dashes indicate reactivities below the cut-off level (OD=0.050))
- IgE (OD) ([1]; serum of patient 10): — (Dashes indicate reactivities below the cut-off level (OD=0.050))
- IgE (OD) ([1]; serum of patient 11): — (Dashes indicate reactivities below the cut-off level (OD=0.050))
- IgE (OD) ([1]; serum of patient 12): — (Dashes indicate reactivities below the cut-off level (OD=0.050))
- IgE (OD) ([1]; serum of patient 13): — (Dashes indicate reactivities below the cut-off level (OD=0.050))
- IgE (OD) ([1]; serum of patient 14): — (Dashes indicate reactivities below the cut-off level (OD=0.050))
- IgE (OD) ([1]; serum of patient 15): — (Dashes indicate reactivities below the cut-off level (OD=0.050))
- IgE (OD) ([1]; serum of patient 16): — (Dashes indicate reactivities below the cut-off level (OD=0.050))
- IgE (OD) ([1]; serum of patient 17): — (Dashes indicate reactivities below the cut-off level (OD=0.050))
- IgE (OD) ([1]; serum of patient 18): — (Dashes indicate reactivities below the cut-off level (OD=0.050))
- IgE (OD) ([1]; serum of patient 19): — (Dashes indicate reactivities below the cut-off level (OD=0.050))
- IgE (OD) ([1]; serum of patient 20): — (Dashes indicate reactivities below the cut-off level (OD=0.050))
- IgE (OD) ([1]; serum of patient 21): — (Dashes indicate reactivities below the cut-off level (OD=0.050))
- IgE (OD) ([1]; serum of patient 22): — (Dashes indicate reactivities below the cut-off level (OD=0.050))
- IgE (OD) ([1]; serum of patient 23): — (Dashes indicate reactivities below the cut-off level (OD=0.050))
- IgE (OD) ([1]; serum of patient 24): — (Dashes indicate reactivities below the cut-off level (OD=0.050))
- IgE (OD) ([1]; serum of patient 25): — (Dashes indicate reactivities below the cut-off level (OD=0.050))
- IgE (OD) ([1]; serum of patient 26): — (Dashes indicate reactivities below the cut-off level (OD=0.050))
- IgE (OD) ([1]; serum of patient 27): — (Dashes indicate reactivities below the cut-off level (OD=0.050))
- IgE (OD) ([1]; serum of patient 28): — (Dashes indicate reactivities below the cut-off level (OD=0.050))
- IgE (OD) ([1]; serum of patient 29): — (Dashes indicate reactivities below the cut-off level (OD=0.050))
- IgE (OD) ([1]; serum of patient 30): — (Dashes indicate reactivities below the cut-off level (OD=0.050))
- IgE (OD) ([1]; serum of patient 31): — (Dashes indicate reactivities below the cut-off level (OD=0.050))
- IgE (OD) ([1]; serum of patient 32): — (Dashes indicate reactivities below the cut-off level (OD=0.050))
- IgE (OD) ([1]; serum of patient 33): — (Dashes indicate reactivities below the cut-off level (OD=0.050))
- IgE (OD) ([1]; serum of patient 34): — (Dashes indicate reactivities below the cut-off level (OD=0.050))
- IgE (OD) ([1]; serum of patient 35): — (Dashes indicate reactivities below the cut-off level (OD=0.050))
- IgE (OD) ([1]; serum of patient 36): — (Dashes indicate reactivities below the cut-off level (OD=0.050))
- IgE (OD) ([1]; serum of patient 37): — (Dashes indicate reactivities below the cut-off level (OD=0.050))
- IgE (OD) ([1]; serum of patient 38): — (Dashes indicate reactivities below the cut-off level (OD=0.050))
- IgE (OD) ([1]; serum of patient 39): — (Dashes indicate reactivities below the cut-off level (OD=0.050))
- IgE (OD) ([1]; serum of patient 40): — (Dashes indicate reactivities below the cut-off level (OD=0.050))
- IgE (OD) ([1]; serum of patient 41): — (Dashes indicate reactivities below the cut-off level (OD=0.050))
- IgE (OD) ([1]; serum of patient 42): — (Dashes indicate reactivities below the cut-off level (OD=0.050))
- IgE (OD) ([1]; serum of patient 43): — (Dashes indicate reactivities below the cut-off level (OD=0.050))
- IgE (OD) ([1]; serum of patient 44): — (Dashes indicate reactivities below the cut-off level (OD=0.050))
- IgE (OD) ([1]; serum of patient 45): — (Dashes indicate reactivities below the cut-off level (OD=0.050))
- IgE (OD) ([1]; serum of patient 46): — (Dashes indicate reactivities below the cut-off level (OD=0.050))
- IgE (OD) ([1]; serum of patient 47): — (Dashes indicate reactivities below the cut-off level (OD=0.050))
- IgE (OD) ([1]; serum of patient 48): — (Dashes indicate reactivities below the cut-off level (OD=0.050))
- IgE (OD) ([1]; serum of patient 49): — (Dashes indicate reactivities below the cut-off level (OD=0.050))
- IgE (OD) ([1]; serum of patient 50): — (Dashes indicate reactivities below the cut-off level (OD=0.050))
- IgE (OD) ([1]; serum of patient 51): — (Dashes indicate reactivities below the cut-off level (OD=0.050))
- IgE (OD) ([1]; serum of patient 52): — (Dashes indicate reactivities below the cut-off level (OD=0.050))
- IgE (OD) ([1]; serum of patient 53): — (Dashes indicate reactivities below the cut-off level (OD=0.050))
- IgE (OD) ([1]; serum of patient 54): — (Dashes indicate reactivities below the cut-off level (OD=0.050))
- IgE (OD) ([1]; serum of patient 55): — (Dashes indicate reactivities below the cut-off level (OD=0.050))
- IgE (OD) ([1]; serum of patient 56): — (Dashes indicate reactivities below the cut-off level (OD=0.050))
- IgE (OD) ([1]; serum of patient 57): — (Dashes indicate reactivities below the cut-off level (OD=0.050))
- IgE (OD) ([1]; serum of patient 58): — (Dashes indicate reactivities below the cut-off level (OD=0.050))
- IgE (OD) ([1]; serum of patient 59): — (Dashes indicate reactivities below the cut-off level (OD=0.050))
- IgE (OD) ([1]; serum of patient 60): — (Dashes indicate reactivities below the cut-off level (OD=0.050))
- mean wheal diameter ([2]; individual 1): 0 mm
- mean wheal diameter ([2]; individual 2): 0 mm
- mean wheal diameter ([2]; individual 3): 0 mm
- mean wheal diameter ([2]; individual 4): 0 mm
- mean wheal diameter ([2]; individual 5): 0 mm
- mean wheal diameter ([2]; individual 6 (allergic, without birch pollen allergy)): 0 mm
